Tests used:
[1] = Plasma protein binding in human assessed as unbound fraction at 5 uM incubated for 6 hrs by LC-MS/MS analysis; assay type: ADME, cell-free
[2] = Plasma protein binding in rat assessed as unbound fraction at 5 uM incubated for 6 hrs by LC-MS/MS analysis; assay type: ADME, cell-free
[3] = Unbound fraction in rat brain homogenate at 1 uM incubated for 6 hrs by LC-MS/MS analysis; assay type: ADME, tissue-based

Compound	Fu [1]	Fu [2]	Fu [3]
Cc1nc2sc3c(NC4CC4)ncnc3c2c(C)c1Cl.Cl	0.004	0.01	
Cc1c(Cl)cnc2sc3c(NC4CC(c5ccncc5)C4)ncnc3c12 (stereo not given)	0.01	0.01	0.005
